The values that follow come from PubChem BioAssay (NCI).

Test systems include TK-10 renal; MDA-MB-231 breast; LOX IMVI melanoma; U251 CNS; UO-31 renal; OVCAR-5 ovarian; NCI-H460 lung; NCI/ADR-RES ovarian; SN12C renal; HCC-2998 colon.
What all share (assay): growth of human tumour cells (NCI), 48 h

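Cultured in 96-well plates, cells were exposed to test compound for 48 hours across five concentrations. GI50 = concentration required for 50% inhibition of growth. TGI denotes the concentration required for complete inhibition of growth.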

Turning to `CCOC(=O)CCC(NC(=O)c1ccc(NCc2ccc3nc(OC)c(OC)nc3c2)c2ccccc12)C(=O)OCC` (stereo unspecified), the TGI in the experiment with TK-10 renal, with MDA-MB-231 breast, with LOX IMVI melanoma, with U251 CNS, in the experiment on UO-31 renal and with OVCAR-5 ovarian was more than 100 µM each time. Moreover, the TGI in the experiment with NCI-H460 lung, with NCI/ADR-RES ovarian, in the experiment with SN12C renal and in the experiment on HCC-2998 colon was more than 100 µM in each case.
As for `O=C(c1ccccc1)C1C(c2ccccc2[N+](=O)[O-])N1C1CCCCC1` (stereo unspecified), the TGI in the experiment on TK-10 renal stood at 7.4 µM; in the experiment with MDA-MB-231 breast it was 23 µM; in the experiment with LOX IMVI melanoma, 5.18 µM; in the experiment on U251 CNS it was 18.5 µM; with UO-31 renal, 20.3 µM; in the experiment on OVCAR-5 ovarian, 36.9 µM. Further, the TGI with NCI-H460 lung is 24.8 µM; in the experiment on NCI/ADR-RES ovarian it was more than 85.2 µM; with SN12C renal, 15.6 µM; in the experiment with HCC-2998 colon it was 18 µM.
As for `Clc1ccc(-c2nn3c(COc4ccc(OCc5nnc6sc(-c7ccc(Cl)cc7)nn56)c(Cl)c4)nnc3s2)cc1`, the TGI in the experiment with TK-10 renal was 45.7 µM; with MDA-MB-231 breast it was more than 100 µM; in the experiment with LOX IMVI melanoma, 35.6 µM; with U251 CNS, 54.7 µM; in the experiment with UO-31 renal, 42.1 µM; with OVCAR-5 ovarian, 71.7 µM. Moreover, the TGI was more than 100 µM in the experiment on NCI-H460 lung, more than 100 µM in the experiment with NCI/ADR-RES ovarian, more than 100 µM in the experiment with SN12C renal and 44.9 µM in the experiment on HCC-2998 colon.
As for `COc1ccc(C=C2C(C)=NN(c3cccc(Cl)c3)C23C(Cl)C(=O)N3c2nc3ccccc3s2)cc1` (stereo unspecified), the TGI is more than 100 µM with TK-10 renal; 51.5 µM in the experiment on MDA-MB-231 breast; 38.5 µM in the experiment with LOX IMVI melanoma; 40.9 µM with U251 CNS; 33.4 µM in the experiment with UO-31 renal; 37.6 µM in the experiment on OVCAR-5 ovarian. The TGI stood at 66.6 µM in the experiment with NCI-H460 lung, 85.7 µM with NCI/ADR-RES ovarian and 7.42 µM in the experiment on HCC-2998 colon.
Take `CC(C)(C)OC(=O)N1CCC2(CC1)C(=O)NCN2c1ccccc1`: the TGI in the experiment with TK-10 renal, with MDA-MB-231 breast, in the experiment on LOX IMVI melanoma, in the experiment with U251 CNS, in the experiment with UO-31 renal and in the experiment with OVCAR-5 ovarian was more than 100 µM each time. Besides, the TGI in the experiment with NCI-H460 lung, in the experiment on NCI/ADR-RES ovarian, in the experiment on SN12C renal and in the experiment on HCC-2998 colon was more than 100 µM each time.
Consider `O=[N+]([O-])C(/C=C(\Cl)[N+](=O)[O-])=C(Nc1ccccc1)Nc1ccccc1`, for which the TGI was 25.4 µM in the experiment on TK-10 renal; 26.9 µM in the experiment with MDA-MB-231 breast; 33.2 µM in the experiment on LOX IMVI melanoma; 27.6 µM in the experiment on U251 CNS; 25.3 µM with UO-31 renal; 20.1 µM in the experiment on OVCAR-5 ovarian. Besides, the TGI was determined as 30 µM in the experiment with NCI-H460 lung, 58.5 µM in the experiment on NCI/ADR-RES ovarian, 29.4 µM in the experiment with SN12C renal and 37.2 µM with HCC-2998 colon.
In the case of `CC(C)NC(=O)OCCN=C1c2ccccc2C(Br)C(Br)c2ccccc21` (stereo unspecified), the TGI in the experiment with TK-10 renal came to 21.6 µM; with MDA-MB-231 breast, 30.5 µM; with LOX IMVI melanoma, 10.1 µM; with U251 CNS, 25.5 µM; in the experiment with UO-31 renal it was 8.97 µM; in the experiment on OVCAR-5 ovarian, 27.3 µM. The TGI with NCI-H460 lung turned out to be 32.4 µM; in the experiment with NCI/ADR-RES ovarian, 41.7 µM; with SN12C renal, 43.4 µM; with HCC-2998 colon, 49.8 µM.
With `CCOC(=O)C(NC(=O)c1ccccc1)(Nc1ccc(S(=O)(=O)Nc2cc(C)on2)cc1)C(F)(F)F` (stereo unspecified), the TGI with TK-10 renal, in the experiment with MDA-MB-231 breast, with LOX IMVI melanoma, with U251 CNS, in the experiment with UO-31 renal and in the experiment on OVCAR-5 ovarian was more than 100 µM each time. The TGI in the experiment on NCI-H460 lung, in the experiment on NCI/ADR-RES ovarian, in the experiment on SN12C renal and with HCC-2998 colon was more than 100 µM throughout.
As to `COc1ccc(C2CC(c3cccc(Nc4ccncc4)c3)=NN2c2ccccc2)cc1` (stereo unspecified), the GI50 in the experiment with TK-10 renal was 2.12 µM; in the experiment with MDA-MB-231 breast, 1.62 µM; in the experiment with LOX IMVI melanoma it was 1.74 µM; in the experiment on U251 CNS it was 1.94 µM; in the experiment on UO-31 renal, 1.41 µM; in the experiment with OVCAR-5 ovarian, 3.29 µM. Moreover, the GI50 in the experiment on NCI-H460 lung is 1.8 µM; in the experiment with NCI/ADR-RES ovarian, 1.74 µM; in the experiment with SN12C renal, 1.72 µM; with HCC-2998 colon, 1.61 µM. Further, the TGI worked out at 4.43 µM with TK-10 renal; 3.04 µM with MDA-MB-231 breast; 3.11 µM in the experiment on LOX IMVI melanoma; 3.8 µM in the experiment with U251 CNS; 2.92 µM in the experiment on UO-31 renal; 12.1 µM in the experiment on OVCAR-5 ovarian. Also, the TGI stood at 3.34 µM with NCI-H460 lung, 3.46 µM in the experiment on NCI/ADR-RES ovarian, 3.23 µM in the experiment on SN12C renal and 3.01 µM in the experiment with HCC-2998 colon.
With `Fc1cccc(C2ON=C(c3ccccc3)N2C23CC4CC(CC(C4)C2)C3)c1` (stereo unspecified), the TGI in the experiment with TK-10 renal, with MDA-MB-231 breast, with LOX IMVI melanoma, in the experiment with U251 CNS, with OVCAR-5 ovarian and in the experiment on NCI-H460 lung was more than 10 µM each time. Moreover, the TGI with NCI/ADR-RES ovarian, with SN12C renal and in the experiment with HCC-2998 colon was more than 10 µM in each case.
As for `COC1CCC(OS(C)(=O)=O)C(C)O1` (stereo unspecified), the TGI with TK-10 renal, with MDA-MB-231 breast, in the experiment with LOX IMVI melanoma, in the experiment on U251 CNS, in the experiment on OVCAR-5 ovarian and with NCI-H460 lung was more than 10 µM in each case. For the same molecule, the TGI in the experiment on NCI/ADR-RES ovarian, with SN12C renal and in the experiment on HCC-2998 colon was more than 10 µM throughout.
Take `Clc1ccc(C2=CC(c3ccccc3)N3C(=N[C@H]4CCCC[C@@H]43)N2)cc1` (stereo partly specified): the TGI in the experiment on TK-10 renal was found to be 20 µM; in the experiment on MDA-MB-231 breast, 22.1 µM; with LOX IMVI melanoma, 19.7 µM; with U251 CNS, 17.2 µM; with UO-31 renal it was 22.9 µM; in the experiment on OVCAR-5 ovarian, 23.6 µM. In addition, the figures for the TGI in the experiment on NCI-H460 lung, with NCI/ADR-RES ovarian and in the experiment on HCC-2998 colon were 8.72 µM, 19.6 µM and 5.08 µM, respectively.
